The record followed here is BindingDB's records for doi:10.1021/cb500893q (University of California Berkeley, 2015).

The pIC50 is the negative decadic logarithm of the IC50, by convention in mol/L.

Each structure is given as a SMILES string. pIC50: −log10 of the molar value.

This assay addresses T1, Platelet-activating factor acetylhydrolase IB subunit alpha2 (Mus musculus, UniProt Q61206).
T1 sequence (Q61206 whole entry): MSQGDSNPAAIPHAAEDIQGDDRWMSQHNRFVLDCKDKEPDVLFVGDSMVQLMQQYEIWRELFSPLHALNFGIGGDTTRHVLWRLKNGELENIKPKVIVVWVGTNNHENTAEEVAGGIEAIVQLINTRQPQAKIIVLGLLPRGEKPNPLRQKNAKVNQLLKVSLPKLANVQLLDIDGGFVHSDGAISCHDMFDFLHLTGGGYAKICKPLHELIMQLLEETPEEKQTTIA
In words: Competitive ABPP Assays in Proteomes with FP-alkyne. To be noted: pH 7.5. As to the method:
Total protein concentrations for each fraction were adjusted to 1 mg/mL in PBS (50 μL total reaction volume). Samples were then subjected to click chemistry by the addition of 1 mM CuSO4 (1 μL of a 50x stock in DMSO), followed by TBTA (3 μL of a 17x stock in 4:1 t-butanol:DMSO), then 25 μM Rh-N3 (1 μL of a 50x stock in DMSO) and 1 mM TCEP (1 μL of a 50x stock in DMSO). Reactions were vortexed, incubated for 1 h at 25 °C, and quenched with 4x SDS-PAGE loading buffer and analyzed by in-gel fluorescence scanning.
In the case of `Cc1ccc(C2CC=C(CNC3CC3)C(c3ccc(C(C)(C)C)cc3)N2S(=O)(=O)c2ccc(C)cc2)cc1` (stereo unspecified) [N-((2-(4-(tert-butyl)phenyl)-6-(p-tolyl)-1-tosyl-1,2,5,6-tetrahydropyridin-3-yl)methyl)cyclopropanamine (JW1061)], the pIC50 is 5.12.
To `Cc1ccc(C2CC=C(C(=O)NC3CC3)C(c3ccc(C(C)(C)C)cc3)N2S(=O)(=O)c2ccc(C)cc2)cc1` (stereo unspecified) [2-(4-(tert-butyl)phenyl)-N-cyclopropyl-6-(p-tolyl)-1-tosyl-1,2,5,6-tetrahydropyridine-3-carboxamide (JW1038)] belongs 5.03; to `COC(=O)C1=CCC(c2ccc(C)cc2)N(S(=O)(=O)c2ccc(C)cc2)C1c1ccc(C(C)(C)C)cc1` (stereo unspecified) [Methyl-2-(4-(tert-butyl)phenyl)-6-(p-tolyl)-1-tosyl-1,2,5,6-tetrahydropyridine-3-carboxylate (JW1068)], below 5.00; to `Cc1ccc(S(=O)(=O)N2C(c3ccc(C(C)C)cc3)CC=C(C(=O)O)C2c2ccc(F)cc2)cc1` (stereo unspecified) [2-(4-fluorophenyl)-1-(4-methylbenzenesulfonyl)-6-[4-(propan-2-yl)phenyl]-1,2,5,6-tetrahydropyridine-3-carboxylic acid (B6)], 5.96.
`Cc1ccc(C2CC=C(C(=O)O)C(c3cccc(Cl)c3)N2S(=O)(=O)c2ccc(C)cc2)cc1` (stereo unspecified) [2-(3-chlorophenyl)-1-(4-methylbenzenesulfonyl)-6-(4-methylphenyl)-1,2,5,6-tetrahydropyridine-3-carboxylic acid (J13)]: the negative logarithm of the IC50 (pIC50) was 5.09.
In turn, `Cc1ccc(S(=O)(=O)N2C(c3ccc(Cl)cc3)CC=C(C(=O)O)C2c2ccc(Br)cc2)cc1` (stereo unspecified) [2-(4-bromophenyl)-6-(4-chlorophenyl)-1-(4-methylbenzenesulfonyl)-1,2,5,6-tetrahydropyridine-3-carboxylic acid (H4)] gave a negative-log IC50 (pIC50) of 5.96.
To `Cc1ccc(S(=O)(=O)N2C(c3ccc(Cl)c(Cl)c3)CC=C(C(=O)O)C2c2ccc(Br)cc2)cc1` (stereo unspecified) [2-(4-bromophenyl)-6-(3,4-dichlorophenyl)-1-(4-methylbenzenesulfonyl)-1,2,5,6-tetrahydropyridine-3-carboxylic acid (K9)] belongs 5.85; to `Cc1ccc(C2CC=C(C(=O)NC3CCCCC3)C(c3ccc(C(C)(C)C)cc3)N2S(=O)(=O)c2ccc(C)cc2)cc1` (stereo unspecified) [2-(4-(tert-butyl)phenyl)-N-cyclohexyl-6-(p-tolyl)-1-tosyl-1,2,5,6-tetrahydropyridine-3-carboxamide (JW1039)], below 5.00; to `CNC(=O)C1=CCC(c2ccc(C)cc2)N(S(=O)(=O)c2ccc(C)cc2)C1c1ccc(C(C)(C)C)cc1` (stereo unspecified) [2-(4-(tert-butyl)phenyl)-N-methyl-6-(p-tolyl)-1-tosyl-1,2,5,6-tetrahydropyridine-3-carboxamide (JW1036)], below 5.00.
Consider `Cc1ccc(C2C(C(=O)O)=CCC(c3ccc(C(C)C)cc3)N2S(=O)(=O)c2ccc(C)cc2)cc1` (stereo unspecified) [1-(4-methylbenzenesulfonyl)-2-(4-methylphenyl)-6-[4-(propan-2-yl)phenyl]-1,2,5,6-tetrahydropyridine-3-carboxylic acid (F5)], for which the pIC50 was 5.35.
Consider `Cc1ccc(C2CC=C(C(=O)O)C(c3ccc(F)cc3)N2S(=O)(=O)c2ccc(C)cc2)cc1` (stereo unspecified) [2-(4-fluorophenyl)-1-(4-methylbenzenesulfonyl)-6-(4-methylphenyl)-1,2,5,6-tetrahydropyridine-3-carboxylic acid (O8)], for which the pIC50 is 5.70.
For the compound `Cc1ccc(C2CC=C(C(=O)O)C(c3ccc(C(C)(C)C)cc3)N2S(=O)(=O)c2ccc(C)cc2)cc1` (stereo unspecified) [2-(4-tert-butylphenyl)-1-(4-methylbenzenesulfonyl)-6-(4-methylphenyl)-1,2,5,6-tetrahydropyridine-3-carboxylic acid (P11)], the pIC50 was 6.10.
`CCc1ccc(C2CC=C(C(=O)O)C(c3cccc(Cl)c3)N2S(=O)(=O)c2ccc(C)cc2)cc1` (stereo unspecified) [2-(3-chlorophenyl)-6-(4-ethylphenyl)-1-(4-methylbenzenesulfonyl)-1,2,5,6-tetrahydropyridine-3-carboxylic acid (J8)] had a negative logarithm of the IC50 (pIC50) of 5.03.
For `C=CCNC(=O)C1=CCC(c2ccc(C)cc2)N(S(=O)(=O)c2ccc(C)cc2)C1c1ccc(C(C)(C)C)cc1` (stereo unspecified) [N-allyl-2-(4-(tert-butyl)phenyl)-6-(p-tolyl)-1-tosyl-1,2,5,6-tetrahydropyridine-3-carboxamide (JW1043)], the negative-log IC50 (pIC50) is 5.12.
In turn, `Cc1ccc(C2CC=C(CBr)C(c3ccc(C(C)(C)C)cc3)N2S(=O)(=O)c2ccc(C)cc2)cc1` (stereo unspecified) [5-(bromomethyl)-6-(4-(tert-butyl)phenyl)-2-(p-tolyl)-1-tosyl-1,2,3,6-tetrahydropyridine (JW1058)] gave a pIC50 of 5.34.
Compound `COCCNC(=O)C1=CCC(c2ccc(C)cc2)N(S(=O)(=O)c2ccc(C)cc2)C1c1ccc(C(C)(C)C)cc1` (stereo unspecified) [2-(4-(tert-butyl)phenyl)-N-(2-methoxyethyl)-6-(p-tolyl)-1-tosyl-1,2,5,6-tetrahydropyridine-3-carboxamide (JW1041)] gave a pIC50 of 5.77.
